Among the data in PubChem BioAssay (NCI) are GI50 and TGI values, retold here.

Several values for one entry are separate records, joined by “and”; a condition that tells them apart may be missing. Equal entries are not always repeated.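 Method: 48-hour compound exposure of cells in 96-well plates, five concentrations, linear interpolation of endpoints. GI50 is the concentration that inhibits growth by half. At the TGI there is no net growth.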

The test system of this experiment is MDA-MB-468 breast. The experiment in a line: inhibition of tumour cell growth, NCI panel, 48 h.
As to `CNC(=O)c1cc2c(Oc3ccc(NC(=O)C4(C(=O)Nc5ccc(F)cc5)CC4)cc3)ccnc2cc1OC`, the GI50 is 2.88 µM and the TGI worked out at 13.5 µM.

As to `CCCCCCCCCCN=C(c1ccc(N(C)C)cc1)c1ccc(N(C)C)cc1`, the GI50 was 0.383 µM and the TGI worked out at 36.7 µM.

`CC1CCCc2c1nn(C(=O)/C=C(\N)c1ccccc1)c2N` (stereo unspecified): the GI50 is 11.9 µM and the TGI was greater than 100 µM.

On to `Cn1c(/C(C#N)=C/c2ccc3ccccc3c2)cc2ccccc21`, for which the GI50 was 0.422 µM and the TGI was greater than 100 µM.

As for `CC(=O)N[C@H](C(=O)N[C@@H](CCCNC(=N)N)C(=O)N[C@@H](CCCCN)C(=O)N[C@@H](CCCNC(=N)N)C(=O)N[C@]1(C)CCCCCC/C=C\CCC[C@@](C)(C(=O)N[C@@H](CCCNC(=N)N)C(=O)N[C@@H](CCC(=O)O)C(=O)N[C@@H](CC(C)C)C(=O)N[C@H](C(=O)N[C@@H](CCC(=O)O)C(N)=O)C(C)C)NC(=O)[C@H](CCC(N)=O)NC(=O)[C@H](CC(C)C)NC(=O)[C@H](CC(C)C)NC(=O)[C@H](CCCNC(=N)N)NC(=O)[C@H](CCCNC(=N)N)NC(=O)[C@H](CC(C)C)NC1=O)C(C)C`, the GI50 is 3.82 µM and the TGI came out at 32.6 µM.

Take `CCN(CC)CCNC(=O)c1cn2ncnc(Oc3ccc(NC(=O)Nc4ccc(Cl)c(C(F)(F)F)c4)c(F)c3)c2c1C`: the GI50 is 1.57 µM and the TGI turned out to be 3.2 µM.

Take `COc1ccc(-c2nnc(N3CCN(C(=O)CN4CCN(c5ccc(OC)cc5)CC4)CC3)nc2-c2ccc(OC)cc2)cc1`: the GI50 was 4.23 µM and the TGI was found to be 21.7 µM.

Turning to `Cn1c([N+](=O)[O-])cnc1/C=C1\Oc2cc(Cl)ccc2C1=O`, the GI50 was 3.15 µM and the TGI amounted to 15.2 µM.

On to `COc1cc2c(cc1-c1c(C)noc1C)cc(C)c(=O)n2Cc1ccccn1`, for which the GI50 was 0.859 µM and the TGI is 4.8 µM.

`COc1ccc2cc(-c3ccc(-c4ccc(C(=N)N)s4)s3)ccc2c1`: the GI50 is 2.34 µM and the TGI was determined as 4.44 µM.

`CCC1=C[C@@H]2CN(C1)Cc1c([nH]c3ccccc13)[C@@](C(=O)OC)(c1cc3c(cc1OC)N(C)[C@H]1[C@@](O)(C(=O)OC)[C@H](OC(C)=O)[C@]4(CC)[C@@H]5C[C@@H]5CN5CC[C@]31[C@@H]54)C2`: the GI50 is less than 0.005 µM and the TGI was determined as 5.74 µM.

For the molecule `Cc1ncc(C(=O)Nc2ccc(CN3CCN(C)CC3)c(C(F)(F)F)c2)cc1C#Cc1cnc(NC2CC2)c2ncccc12`, the GI50 is 3.92 µM and the TGI worked out at 9.32 µM.

As to `c1ccc(Cn2cnc3ccc(-c4nc(-c5ccc6c(c5)ncn6C5CCCCC5)cn5ccnc45)cc32)cc1`, the GI50 is 1.92 µM and the TGI came out at 4.43 µM.

As for `COc1ccc(/C=C2/CCc3cc4ccc(OC)cc4[o+]c32)c(O)c1`, the GI50 was 14 µM and the TGI is 34.9 µM.

Regarding `CCN(CC)CCNC(=O)c1c(C)[nH]c(/C=C2\C(=O)Nc3ccc(F)cc32)c1C`, the GI50 was > 10 µM and 3.25 µM and 1.41 µM; the TGI was > 10 µM and 6.21 µM and 4.31 µM.

Consider `Cc1nc(Nc2n[nH]c3c2CN(C(=O)N[C@H](CN(C)C)c2ccccc2)C3(C)C)c2sccc2n1`, for which the GI50 was 0.247 µM and 0.226 µM; the TGI was 2.26 µM and 2.47 µM.

Turning to `C[C@H](Cn1ncnn1)Nc1ncc2cc(Oc3ccc(F)cc3F)c(=O)n(C)c2n1`, the GI50 is greater than 25 µM and the TGI was greater than 25 µM.

In the case of `CCCCCCCCCCCC[n+]1ccccc1` (tested in a mixture with another compound), the GI50 is 0.246 µM and the TGI was found to be 3.36 µM.

On to `NC(=O)c1cccc(Nc2nccc(Nc3cccc(F)c3)n2)c1`, for which the GI50 is 3.88 µM and the TGI stood at 12.8 µM.

As for `NC(=O)C1(N2CCCCC2)CCN(CCCC(=O)c2ccc(F)cc2)CC1`, the GI50 was 0.0204 µM and the TGI came out at 0.0682 µM.

With `O=C1C(Cl)=C(Nc2ccccc2)C(=O)c2ccccc21`, the GI50 is 1.52 µM and the TGI was determined as 3.1 µM.

For `Cn1cc(-c2csc(-c3cn(C)c4ccccc34)n2)c2cnccc21`, the GI50 was 0.265 µM and the TGI came out at 0.866 µM.

As for `CCC(=C(c1ccc(OCCCN(C)C)cc1)c1ccc(OCCCN(C)C)cc1)c1ccc(Cl)cc1`, the GI50 was 1.15 µM and the TGI turned out to be 3.74 µM.

On to `O=S1(=O)NCCCN1CCNc1nccc(-c2c(-c3cccc(O)c3)nc3sccn23)n1`, for which the GI50 was 13.3 µM and the TGI was greater than 86.1 µM.

On to `COCCOCCOCc1n(Cc2ccc3ccccc3n2)c2ccccc2[n+]1Cc1ccc2ccccc2c1`, for which the GI50 is 0.259 µM and the TGI worked out at 0.996 µM.

Take `COc1ccccc1/C=C/C(=O)/C=C/c1ccccc1O`: the GI50 was 0.53 µM and the TGI is 2.06 µM.

As to `CCCCCCCCCCCCCCCCCCNC(=O)[C@H]1CSC(c2cccs2)N1` (stereo partly specified), the GI50 was 9.32 µM and the TGI is greater than 50 µM.

`CC1(C)N=C(N)N=C(N)N1c1ccc(OCC(=O)Nc2ccccc2)c(Cl)c1`: the GI50 is 3.05 µM and the TGI is greater than 100 µM.

With `O=C(/C=C/c1ccccc1)CC(c1ccccc1)N1CCOCC1` (stereo unspecified), the GI50 is 2.05 µM and the TGI is 5.56 µM.

For the molecule `Cc1cc(Nc2nc(SCc3ccc(C(=O)Nc4ccc(F)cc4N)cc3)nn3cccc23)n[nH]1`, the GI50 is 0.432 µM and the TGI came to 36 µM.

For `O=C(O)CCC(NC(=S)S)C(=O)O.[Na+].[Zn+2]` (stereo unspecified), the GI50 was greater than 50 µM and the TGI was greater than 50 µM.

Consider `O=S(=O)(CCOCc1ccc(-c2ccc3ncnc(Nc4ccc(OCc5cccc(F)c5)c(Cl)c4)c3c2)o1)c1ccccc1`, for which the GI50 is 0.105 µM and the TGI was found to be 2.33 µM.

On to `C=C1CC2(OC1=O)C(=O)N(CCCN1C(=O)C3(CC(=C)C(=O)O3)c3ccccc31)c1ccccc12` (stereo unspecified), for which the GI50 is 1.28 µM and the TGI is 3.25 µM.
